According to patent US20200149049A1, “METHODS AND COMPOSITIONS RELATING TO ANTI-CALCIFICATION” (THE BRIGHAM AND WOMEN'S HOSPITAL, INC., priority 2017, published 2020):
“Also recorded” adds a separate entry of the source.

Columns and labels:
Assay type in all cases: cell-based, human
hCASMCs [1] = test: Gene expression assay (TaqMan real-time PCR) in hCASMCs
Procedure: FIG. 32 depicts graphs of the effects of PPAR agonists on gene expressions in hCASMCs. HCASMCs were maintained under the same condition with FIG. 23A-23C. Next day after cell seeding, medium was changed to 1% FCS DMEM. After 24 hours, hCASMCs were stimulated by 100 nM K-877 (K877), 100 nM GW-501516 (GW) and 100 nM rosiglitazone (Rosi). After 18 hours, the mRNA samples were isolated by TRIzol Reagent.
FIGS. 33A-33D depict the effects of CROT silencing on CDNK1A (FIG. 33A), DUSP1 (FIG. 33B), HMOX1 (FIG. 33C) and SAT1 (FIG. 33D) gene expression in hCASMCs. HCASMCs were maintained under the same condition with FIGS. 23A-23C. The mRNA samples from hCASMCs were isolated using TRIzol Reagent on Day 7. *: P<0.05, **: P<0.01 (vs. NM-siCont or OM-siCont, Student's t-test, N=3).
HCASMCs were maintained under the same condition with FIGS. 23A-23C. BMP7 was not detected. The mRNA samples from hCASMCs were isolated using TRIzol Reagent on Day 7. *: P<0.05 (vs. OM-siCont, Student's t-test, N=3).
FIG. 35 depicts the effects of PPAR agonists GW-501516 on SLC20A1 gene expression in hCASMCs. HCASMCs were maintained under the same condition with FIGS. 23A-23C. HCASMCs were stimulated by 100 nM GW-501516 (GW). After 18 hours, the mRNA samples were isolated by TRIzol Reagent. **: P<0.01, (vs. Control, Student's t-test, N=3).
RNA preparation and real-time PCR. Total RNA from the cell culture was isolated using TRIZol (Life Technologies). Reverse transcription was performed using the QuantiTect Reverse Transcription Kit (Qiagen). The mRNA expression was determined by TaqMan-based real-time PCR reactions (Life Technologies). The following TaqMan probes were used: 4326315E (human β-actin), (human SLC20A1), (human BMP2), (human BMP4), (human BMP7). The expression levels were normalized to β-actin. Results were calculated using the […] method, and presented as fold increase relative to control.

hCASMCs [2] = test: Mineralization assay (Alizarin Red staining, calcium deposition); settings: hCASMCs in osteogenic medium with siRNA, Day 21
Procedure: (§1) FIGS. 22A-22C depict the effects of the SORT1, AASS, CROT, IL1R1, ITGBL1, METTL7A and NNMT silencing on calcium deposition and TNAP activity in hCASMCs. HCASMCs were treated with siRNAs in NM. After 3 days, the medium was changed to OM with the siRNA. On Day 21, cells were fixed in 4% formalin for 10 min and washed twice with PBS for Alizarin Red staining. The cells were stained with 2% Alizarin Red solution for 20 min at RT and rinsed twice with water (FIG. 22A). Then, the Alizarin Red was extracted by 10 mM cetylpyridinium chloride and the extracts were measured on the absorbance (540 nm) (FIG. 22B). On Day 14, TNAP activity was determined using Alkaline Phosphatase Activity Colorimetric Assay Kit (FIG. 22C).
(§2) FIGS. 23A-23C depict teffects of the CROT silencing on calcium deposition and TNAP activity in hCASMCs. HCASMCs were treated with siRNAs in NM. […] Then, the Alizarin Red was extracted by 10 mM cetylpyridinium chloride and the extracts were measured on the absorbance (540 nm) (FIG. 23B). On Day 14, TNAP activity was determined using Alkaline Phosphatase Activity Colorimetric Assay Kit (FIG. 23C). **: P<0.01, ***: P <0.001 (vs. OM-siControl, Student's t-test, N=3-4). […]
Mineralization assay and activity of tissue non-specific alkaline phosphatase. Mineralized matrix formation was assessed by Alizarin Red staining. […] Aliquots were taken and measured with a spectrophotometer at 540 nm.

TNAP activity in hCASMCs = test: Tissue non-specific alkaline phosphatase (TNAP) activity in cell cultures; settings: hCASMCs in osteogenic medium with siRNA; Day 14
Procedure: as §1
as §2, with “NM. After 3 days, the medium was changed to OM with the siRNA.” for “NM.”
Tissue non-specific alkaline phosphatase (TNAP) activity was measured in cell cultures using the Alkaline Phosphatase Activity Colorimetric Assay Kit (BioVision). […]

| Compound | SLC20A1 gene expression (hCASMCs [1]; PPARδ agonist, after 24 h) | CDKN1A gene expression (hCASMCs [1]; response to PPARδ agonist) | DUSP1 gene expression (hCASMCs [1]; response to PPARδ agonist) | HMOX1 gene expression (hCASMCs [1]; response to PPARδ agonist) | SAT1 gene expression (hCASMCs [1]; response to PPARδ agonist) | HMOX1 expression (hCASMCs [1]; CROT siRNA, Day 7) | Ca deposition (hCASMCs [2]) | TNAP activity (TNAP activity in hCASMCs) |
| --- | --- | --- | --- | --- | --- | --- | --- | --- |
| Cc1cc(SCc2sc(-c3ccc(C(F)(F)F)cc3)nc2C)ccc1OCC(=O)O [PPARδ agonist, GW-501516] | suppressed; also recorded: reduced | affected | affected | affected | affected | – | – | – |
| siCROT: siRNA silencing CROT; patent names inhibitory nucleic acid CACUUCAGCUGGCCUAUUA (SEQ ID NO: 1) as CROT inhibitor (listed as RNA, chemistry not given here) | – | – | – | – | – | induced | decreased | decreased |
